Marks after values point to notes of the source that are not given here.
Columns and labels:
[1] = tested on: chronic dermatitis models; conditions: Non-patent Document 2; cited from earlier work
[2] = tested on: delayed-type allergic reaction in the skin; conditions: animal model; Non-patent Document 1; cited from earlier work
[3] = tested on: oxazolone-induced ear swelling; assay: Inhibitory effects on oxazolone-induced ear swelling in mice (Test Example 2); type: in vivo; conditions: dose 1.2 μg/site, 0.03 mg/mL in acetone applied to inner and outer side of the ear 3 hours before and 2 hours after inducing the reaction, ear thickness 24 hours after induction, BALB/c mice
Method: Six-week-old BALB/c mice (male, Charles River Japan, Inc.) were purchased. […] The mice were placed in plastic cages (6 mice per cage) in a breeding room which was kept at a room temperature (19 to 25° C.) and a humidity of 30 to 70% and was illuminated for 12 hours a day (from 7:00 a.m. to 7:00 p.m.). The mice were allowed to freely intake commercially available pellets and water.
As an antigen solution, Oxazolone (Sigma-Aldrich) was dissolved in acetone (Kanto Kagaku) to prepare 0.5 w/v % of oxazolone-acetone solution. BALB/c mice were each applied with 100 μL of the antigen solution to the shaved abdomen for sensitization. Mice were shaved on abdomen on the previous day of the sensitization. […] Ear thickness was measured with a dial thickness gauge (Ozaki Seisakusho) just before and 24 hours after inducing the reaction, and the difference in the thickness was used as an indication of ear swelling. The inhibition ratio (%) against ear swelling was calculated using the following: Inhibition ratio (%)=[{(value in positive control group)−(value in test compound administration group)}/{(value in positive control group)−(value in negative control group)}]×100 Test compound administration group: Compound (I) administration group, prednisolone administration group or combined administration group

Compound | Therapeutic effects on chronic dermatitis models [1] | Effect on delayed-type allergic reaction in the skin [2] | Inhibition Ratio (ear swelling) [3] | Inhibition Ratio (ear swelling) ([3]; listed as Predonisolone)
COc1ccc([C@]2(C#N)CC[C@@H](C(=O)O)CC2)cc1OC1CCCC1 [SB207499] | exhibit therapeutic effects | inhibit a delayed-type allergic reaction in the skin | – | –
C[C@]12C=CC(=O)C=C1CC[C@@H]1[C@@H]2[C@@H](O)C[C@@]2(C)[C@H]1CC[C@]2(O)C(=O)CO [prednisolone] | – | – | 18% | 18%***

— patent US20070287689A1, “Therapeutic And/Or Preventive Agents For Chronic Skin Diseases” (KYOWA HAKKO KOGYO CO., LTD., priority 2004, published 2007)
